Reference: US20050282743A1, “Molecular interactions in cells” (Arbor Vita Corporation, priority 2001, published 2005)
Like-named read-outs stand apart in the source and are kept apart here. Peptide text beside a SMILES is read from it. * marks the point of attachment. Biotin = O=C1N[C@H]2[C@H](CS[C@H]2CCCCC(=O)*)N1

Columns and labels:
[1] = target: T1, PDZ-domain polypeptide (GST/PDZ fusion protein) (Homo sapiens, UniProt Q5TCQ9); assay: Apparent affinity (Kd) by titration of PL peptide in the G assay; format: binding
T1 construct: made in house; host or cells: E. coli (DH5alpha, BL21 or JM109)
T1 sequence (Q5TCQ9 1-1481): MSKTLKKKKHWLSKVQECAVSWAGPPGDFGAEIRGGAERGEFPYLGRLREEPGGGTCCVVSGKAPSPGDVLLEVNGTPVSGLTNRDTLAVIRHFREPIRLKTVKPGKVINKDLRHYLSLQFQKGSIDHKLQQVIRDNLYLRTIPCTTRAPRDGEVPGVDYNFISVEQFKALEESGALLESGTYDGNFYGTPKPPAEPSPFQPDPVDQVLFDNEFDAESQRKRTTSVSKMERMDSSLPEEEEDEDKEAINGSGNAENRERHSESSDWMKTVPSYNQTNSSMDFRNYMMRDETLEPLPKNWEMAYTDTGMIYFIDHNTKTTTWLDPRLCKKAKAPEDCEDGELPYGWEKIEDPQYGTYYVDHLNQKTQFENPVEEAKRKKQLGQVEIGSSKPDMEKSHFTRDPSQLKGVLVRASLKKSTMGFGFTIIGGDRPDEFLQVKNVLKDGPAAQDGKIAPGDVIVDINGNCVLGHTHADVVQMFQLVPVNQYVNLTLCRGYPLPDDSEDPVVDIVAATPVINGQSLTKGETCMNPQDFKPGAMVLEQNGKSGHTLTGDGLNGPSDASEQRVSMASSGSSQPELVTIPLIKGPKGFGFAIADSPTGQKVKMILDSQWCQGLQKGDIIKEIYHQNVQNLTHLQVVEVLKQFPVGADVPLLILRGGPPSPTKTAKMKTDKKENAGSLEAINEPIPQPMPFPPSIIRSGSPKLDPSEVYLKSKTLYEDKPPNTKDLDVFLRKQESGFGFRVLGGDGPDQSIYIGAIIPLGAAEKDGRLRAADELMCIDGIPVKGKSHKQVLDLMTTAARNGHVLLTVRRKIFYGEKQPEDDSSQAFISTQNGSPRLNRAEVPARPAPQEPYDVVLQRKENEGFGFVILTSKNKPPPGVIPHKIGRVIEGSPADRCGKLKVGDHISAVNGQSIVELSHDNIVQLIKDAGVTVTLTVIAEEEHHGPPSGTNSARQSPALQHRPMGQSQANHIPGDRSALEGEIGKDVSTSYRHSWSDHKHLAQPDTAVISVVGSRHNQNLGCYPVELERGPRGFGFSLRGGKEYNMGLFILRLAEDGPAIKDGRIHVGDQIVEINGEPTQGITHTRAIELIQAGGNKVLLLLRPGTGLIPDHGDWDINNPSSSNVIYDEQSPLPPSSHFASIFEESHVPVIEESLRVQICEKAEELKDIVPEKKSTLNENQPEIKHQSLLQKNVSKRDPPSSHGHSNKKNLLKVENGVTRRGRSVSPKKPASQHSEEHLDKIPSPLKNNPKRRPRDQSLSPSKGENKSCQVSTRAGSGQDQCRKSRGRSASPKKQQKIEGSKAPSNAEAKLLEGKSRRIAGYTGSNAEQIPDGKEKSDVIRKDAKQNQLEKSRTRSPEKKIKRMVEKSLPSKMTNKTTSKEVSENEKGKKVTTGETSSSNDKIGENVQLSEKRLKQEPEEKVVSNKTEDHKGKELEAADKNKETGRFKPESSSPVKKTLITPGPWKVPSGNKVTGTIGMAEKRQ
Outline: (§1)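 A fixed concentration of GST/PDZ fusion protein, 5 ug/ml by default, was mixed in solution with increasing labeled PL peptide (e.g. 0.1 uM-1 mM). Reaction times ranged from 10 minutes to 2 days at 4-37° C. Complexes were separated from free peptide and detected via the label as in the G assay, apparent affinity coming from the saturating concentration.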

[2] = target: T2, PDZ-domain polypeptide (GST/PDZ fusion protein) (Homo sapiens, UniProt Q12923); assay: as above; format: binding
T2 construct: made in house; host or cells: E. coli (DH5alpha, BL21 or JM109)
Outline: as §1

[3] = PDZ KIAA1634, PDZ Domain 1, read-out: Peptide Optimal Conc (Kd by titration of the PL peptide)
[4] = PDZ PTPL-1, PDZ Domain 2, read-out: Peptide Optimal Conc (Kd by titration of the PL peptide)

T2 sequence (Q12923 whole entry, the tested form may be a part): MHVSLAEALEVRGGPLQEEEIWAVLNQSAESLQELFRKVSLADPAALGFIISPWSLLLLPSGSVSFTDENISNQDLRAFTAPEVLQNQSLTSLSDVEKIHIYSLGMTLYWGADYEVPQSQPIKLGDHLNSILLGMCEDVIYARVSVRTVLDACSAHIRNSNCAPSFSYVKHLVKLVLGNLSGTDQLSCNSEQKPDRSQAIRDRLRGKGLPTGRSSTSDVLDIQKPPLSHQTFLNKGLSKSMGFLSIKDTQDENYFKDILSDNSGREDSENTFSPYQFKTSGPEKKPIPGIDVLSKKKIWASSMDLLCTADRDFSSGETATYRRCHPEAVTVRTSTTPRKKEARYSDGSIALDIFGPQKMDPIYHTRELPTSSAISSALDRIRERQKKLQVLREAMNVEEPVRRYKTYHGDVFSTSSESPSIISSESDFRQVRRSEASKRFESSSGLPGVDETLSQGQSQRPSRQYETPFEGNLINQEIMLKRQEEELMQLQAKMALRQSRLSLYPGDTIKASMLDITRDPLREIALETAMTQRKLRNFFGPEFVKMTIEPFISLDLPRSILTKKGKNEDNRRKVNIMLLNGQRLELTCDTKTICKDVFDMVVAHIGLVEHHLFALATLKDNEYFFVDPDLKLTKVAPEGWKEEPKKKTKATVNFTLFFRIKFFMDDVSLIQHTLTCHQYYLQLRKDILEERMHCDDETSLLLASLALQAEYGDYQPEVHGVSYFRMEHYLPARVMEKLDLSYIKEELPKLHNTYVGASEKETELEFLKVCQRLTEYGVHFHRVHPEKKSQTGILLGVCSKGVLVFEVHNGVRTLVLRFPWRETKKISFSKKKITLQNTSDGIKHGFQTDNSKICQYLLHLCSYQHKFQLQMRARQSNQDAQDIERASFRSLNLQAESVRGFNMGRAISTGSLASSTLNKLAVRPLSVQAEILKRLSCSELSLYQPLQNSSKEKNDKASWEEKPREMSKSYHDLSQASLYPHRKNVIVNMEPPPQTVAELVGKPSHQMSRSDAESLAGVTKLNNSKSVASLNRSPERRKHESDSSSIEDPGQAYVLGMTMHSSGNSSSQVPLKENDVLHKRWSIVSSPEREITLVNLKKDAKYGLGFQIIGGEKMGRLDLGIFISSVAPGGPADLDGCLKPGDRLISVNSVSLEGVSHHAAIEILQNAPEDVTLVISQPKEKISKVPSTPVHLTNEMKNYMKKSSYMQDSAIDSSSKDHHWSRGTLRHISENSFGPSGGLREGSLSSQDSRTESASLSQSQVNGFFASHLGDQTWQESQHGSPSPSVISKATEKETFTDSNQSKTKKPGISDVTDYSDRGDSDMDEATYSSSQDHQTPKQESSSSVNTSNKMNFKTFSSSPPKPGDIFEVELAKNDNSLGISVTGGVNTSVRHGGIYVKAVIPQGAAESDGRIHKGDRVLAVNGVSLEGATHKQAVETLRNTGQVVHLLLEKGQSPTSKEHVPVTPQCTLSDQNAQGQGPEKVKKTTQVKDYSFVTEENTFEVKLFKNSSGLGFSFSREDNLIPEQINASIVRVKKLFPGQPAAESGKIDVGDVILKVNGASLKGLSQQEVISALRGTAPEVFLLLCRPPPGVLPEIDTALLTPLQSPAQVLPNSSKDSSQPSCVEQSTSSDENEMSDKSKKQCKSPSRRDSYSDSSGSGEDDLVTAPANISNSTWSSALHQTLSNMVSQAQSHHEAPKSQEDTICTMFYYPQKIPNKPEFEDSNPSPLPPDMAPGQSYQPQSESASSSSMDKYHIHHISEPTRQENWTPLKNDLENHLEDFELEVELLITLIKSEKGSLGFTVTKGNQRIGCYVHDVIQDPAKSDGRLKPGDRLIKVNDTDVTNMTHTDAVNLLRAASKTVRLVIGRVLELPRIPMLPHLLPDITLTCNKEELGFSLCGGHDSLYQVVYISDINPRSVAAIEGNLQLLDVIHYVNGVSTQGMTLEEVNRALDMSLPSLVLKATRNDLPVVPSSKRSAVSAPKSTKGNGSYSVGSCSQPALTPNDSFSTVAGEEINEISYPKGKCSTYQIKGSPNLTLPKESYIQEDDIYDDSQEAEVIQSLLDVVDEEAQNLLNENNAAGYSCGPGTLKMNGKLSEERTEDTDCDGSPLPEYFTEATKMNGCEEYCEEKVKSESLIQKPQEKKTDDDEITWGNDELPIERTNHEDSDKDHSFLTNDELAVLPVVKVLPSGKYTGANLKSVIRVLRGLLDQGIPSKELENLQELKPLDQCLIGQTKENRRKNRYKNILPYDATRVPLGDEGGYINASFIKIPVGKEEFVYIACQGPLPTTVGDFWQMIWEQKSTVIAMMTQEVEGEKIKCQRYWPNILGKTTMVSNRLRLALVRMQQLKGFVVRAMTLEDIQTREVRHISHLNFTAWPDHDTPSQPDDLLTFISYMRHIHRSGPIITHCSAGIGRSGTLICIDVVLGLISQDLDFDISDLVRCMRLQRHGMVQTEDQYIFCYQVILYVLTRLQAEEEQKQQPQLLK

Question: For CC(C)C[C@H](NC(=O)CNC(=O)[C@@H](NC(=O)[C@H](CO)NC(=O)[C@H](CC(N)=O)NC(=O)[C@H](Cc1ccccc1)NC(=O)CNC(=O)[C@H](C)NC(=O)[C@H](C)NC(=O)[C@H](Cc1ccccc1)NC(=O)[C@@H](NC(=O)CCCC[C@@H]1SC[C@@H]2NC(=O)N[C@@H]21)[C@@H](C)O)[C@@H](C)O)C(=O)N1CCC[C@H]1C(=O)N[C@@H](Cc1c[nH]cn1)C(=O)N[C@@H](CO)C(=O)N[C@H](C(=O)N[C@H](C(=O)N[C@@H](CCCNC(=N)N)C(=O)N[C@H](C(=O)O)C(C)C)[C@@H](C)O)[C@@H](C)O [Neuroligin] (Biotin-TFAAGFNSTGLPHSTTRV-OH; C-terminus assumed), which Kd [1, 3] is on record?
Answer: 0.1 µM

Question: Which Kd ([1]; PDZ KIAA1634, PDZ Domain 2, read-out: Peptide Optimal Conc (non-zero value: Kd by titration of the PL peptide)) does the source give for CC[C@H](C)[C@H](NC(=O)[C@H](Cc1c[nH]cn1)NC(=O)[C@H](C)NC(=O)[C@H](C)NC(=O)[C@H](CO)NC(=O)[C@@H]1CCCN1C(=O)[C@H](CCCNC(=N)N)NC(=O)[C@H](CC(=O)O)NC(=O)[C@H](CCCCN)NC(=O)[C@@H]1CCCN1C(=O)[C@H](CC(=O)O)NC(=O)[C@H](CCC(=O)O)NC(=O)CCCC[C@@H]1SC[C@@H]2NC(=O)N[C@@H]21)C(=O)N[C@H](C(=O)N[C@@H](CCC(=O)O)C(=O)N[C@@H](C)C(=O)N[C@@H](CC(C)C)C(=O)N[C@@H](CCC(=O)O)C(=O)N[C@H](C(=O)N[C@@H](CC(=O)O)C(=O)N[C@H](C(=O)O)C(C)C)[C@@H](C)O)C(C)C [PDZ-binding kinase (PBK)] (Biotin-EDPKDRPSAAHIVEALETDV-OH; C-terminus assumed) here?
Answer: 7 µM

Question: What about the Kd ([2]; PDZ PTPL-1, PDZ Domain 2, read-out: Peptide Optimal Conc (non-zero value: Kd by titration of the PL peptide)) of the same compound?
Answer: 6 µM

Question: How did the Kd ([1]; PDZ KIAA1634, PDZ Domain 5, read-out: Peptide Optimal Conc (non-zero value: Kd by titration of the PL peptide)) turn out when CC(C)C[C@H](NC(=O)[C@H](CC(=O)O)NC(=O)[C@H](CO)NC(=O)[C@H](CCC(=O)O)NC(=O)CNC(=O)[C@H](Cc1ccc(O)cc1)NC(=O)[C@H](CC(C)C)NC(=O)[C@H](C)NC(=O)[C@H](CO)NC(=O)[C@H](CO)NC(=O)[C@H](Cc1ccccc1)NC(=O)[C@H](C)NC(=O)[C@H](C)NC(=O)[C@H](Cc1ccc(O)cc1)NC(=O)[C@H](CC(=O)O)NC(=O)[C@H](CC(C)C)NC(=O)[C@H](C)NC(=O)CNC(=O)[C@@H]1CCCN1C(=O)[C@@H](NC(=O)CCCC[C@@H]1SC[C@@H]2NC(=O)N[C@@H]21)C(C)C)C(=O)O [a-actinin 2] (Biotin-VPGALDYAAFSSALYGESDL-OH; C-terminus assumed) was run?
Answer: 2 µM

Question: For CC[C@H](C)[C@H](NC(=O)[C@H](Cc1ccc(O)cc1)NC(=O)[C@H](CC(C)C)NC(=O)[C@H](CCC(N)=O)NC(=O)[C@H](Cc1c[nH]cn1)NC(=O)[C@H](CO)NC(=O)[C@H](C)NC(=O)[C@H](CC(C)C)NC(=O)[C@@H](NC(=O)[C@H](CC(=O)O)NC(=O)[C@H](CCSC)NC(=O)[C@H](Cc1ccccc1)NC(=O)[C@@H]1CCCN1C(=O)[C@H](CCCNC(=N)N)NC(=O)[C@@H](NC(=O)[C@H](CC(C)C)NC(=O)[C@H](CC(N)=O)NC(=O)[C@H](CC(=O)O)NC(=O)[C@@H](NC(=O)[C@H](CO)NC(=O)CCCC[C@@H]1SC[C@@H]2NC(=O)N[C@@H]21)[C@@H](C)O)C(C)C)[C@@H](C)O)C(=O)O [presenilin-2] (Biotin-STDNLVRPFMDTLASHQLYI-OH; C-terminus assumed), which Kd ([2]; PDZ PTPL-1, PDZ Domain 4, titration of the PL peptide, read-out: Peptide Optimal Conc (Kd, dissociation constant)) is on record?
Answer: 8 µM

Question: How did the Kd ([1]; PDZ KIAA1634, PDZ Domain 1, titration of the PL peptide, read-out: Peptide Optimal Conc (Kd, dissociation constant)) turn out when CC[C@H](C)[C@H](NC(=O)[C@H](CO)NC(=O)[C@@H](NC(=O)[C@H](Cc1ccccc1)NC(=O)[C@H](CO)NC(=O)CCCC[C@@H]1SC[C@@H]2NC(=O)N[C@@H]21)[C@@H](C)O)C(=O)N[C@@H](CC(C)C)C(=O)N[C@H](C(=O)N[C@@H](CS)C(=O)N[C@@H](Cc1c[nH]cn1)C(=O)N[C@@H](CCC(N)=O)C(=O)N[C@@H](CCCNC(=N)N)C(=O)N[C@@H](CCCNC(=N)N)C(=O)N[C@H](C(=O)N[C@@H](CCC(N)=O)C(=O)N[C@@H](CCCNC(=N)N)C(=O)N[C@@H](CCCCN)C(=O)N[C@@H](CCC(=O)O)C(=O)N[C@H](C(=O)N[C@H](C(=O)N[C@@H](C)C(=O)O)C(C)C)[C@@H](C)O)[C@@H](C)O)[C@@H](C)O [GluR5-2 (rat)] was run?
Answer: 0.15 µM

Question: Which Kd [1, 3] does the source give for CC(C)C[C@H](NC(=O)[C@H](Cc1c[nH]c2ccccc12)NC(=O)[C@H](Cc1c[nH]cn1)NC(=O)[C@H](CCCNC(=N)N)NC(=O)[C@H](CC(C)C)NC(=O)[C@@H](NC(=O)[C@H](Cc1ccccc1)NC(=O)[C@H](CCC(N)=O)NC(=O)[C@H](CCCNC(=N)N)NC(=O)[C@@H](NC(=O)[C@H](CCC(=O)O)NC(=O)CNC(=O)[C@H](CCCNC(=N)N)NC(=O)[C@H](CC(=O)O)NC(=O)[C@@H](NC(=O)[C@H](CC(C)C)NC(=O)[C@H](CCC(=O)O)NC(=O)[C@H](CCCNC(=N)N)NC(=O)CCCC[C@@H]1SC[C@@H]2NC(=O)N[C@@H]21)C(C)C)C(C)C)[C@@H](C)O)C(=O)N[C@@H](CCCCN)C(=O)N[C@H](C(=O)O)C(C)C [Dopamine transporter (Na+-dependent)] (Biotin-RELVDRGEVRQFTLRHWLKV-OH; C-terminus assumed) here?
Answer: 0.9 µM

Question: What about the Kd ([2]; PDZ PTPL-1, PDZ Domain 4, read-out: Peptide Optimal Conc (Kd by titration of the PL peptide)) of the same compound?
Answer: 0.4 µM

Question: For CC[C@H](C)[C@H](NC(=O)[C@H](CCC(N)=O)NC(=O)[C@@H](NC(=O)[C@H](Cc1c[nH]cn1)NC(=O)[C@H](CCC(N)=O)NC(=O)[C@H](CC(=O)O)NC(=O)[C@H](CCC(=O)O)NC(=O)[C@H](CC(=O)O)NC(=O)[C@H](Cc1ccccc1)NC(=O)[C@@H]1CCCN1C(=O)[C@H](CCC(=O)O)NC(=O)[C@H](CC(N)=O)NC(=O)[C@H](CCC(=O)O)NC(=O)[C@@H]1CCCN1C(=O)[C@H](CC(=O)O)NC(=O)[C@H](CO)NC(=O)[C@H](CC(=O)O)NC(=O)CCCC[C@@H]1SC[C@@H]2NC(=O)N[C@@H]21)[C@@H](C)O)C(=O)N[C@H](C(=O)N[C@@H](CCCCN)C(=O)N[C@H](C(=O)O)C(C)C)[C@@H](C)O [PTEN], which Kd [2, 4] is on record?
Answer: 0.3 µM

Question: CC(C)C[C@H](NC(=O)[C@H](CC(C)C)NC(=O)[C@@H](NC(=O)[C@H](CC(=O)O)NC(=O)CCCC[C@@H]1SC[C@@H]2NC(=O)N[C@@H]21)[C@@H](C)O)C(=O)N[C@@H](CC(C)C)C(=O)N[C@H](C(=O)N[C@@H](CCC(=O)O)C(=O)N[C@@H](CC(N)=O)C(=O)N[C@@H](CCC(=O)O)C(=O)NCC(=O)N[C@@H](CC(=O)O)C(=O)N[C@@H](CCCCN)C(=O)N[C@H](C(=O)N[C@@H](CCC(=O)O)C(=O)N[C@@H](CCC(=O)O)C(=O)N[C@@H](CCC(N)=O)C(=O)N[C@H](C(=O)N[C@@H](CO)C(=O)N[C@@H](Cc1ccc(O)cc1)C(=O)N[C@H](C(=O)O)C(C)C)C(C)C)[C@@H](C)O)[C@@H](C)O [5H2B_HUMAN] (Biotin-DTLLLTENEGDKTEEQVSYV-OH; C-terminus assumed) was tested. Which Kd [2, 4] did it give?
Answer: 0.2 µM
